Measurements taken from the supplement of paper PMC8253809.

Tests used:
DIPGX37 = H3.3 K27M diffuse intrinsic pontine glioma line; assay: area under dose-response curve of % growth inhibition (log2 RLU vs DMSO / staurosporine), 1e-11 to 1e-4 M (% x log10 M); higher = more growth inhibition
In short: (§1)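 Patient-derived pHGG/DIPG cell lines and astrocytes, cultured on 384-well plates with a 1% Geltrex coating, were given a 10-point threefold dilution series (mean top concentration 35 μM) in triplicate for 7 days (iAstro 3 days) at 37 °C, 5% CO2. CellTiter-Glo signal, log2-transformed and normalised per plate to % activity against solvent and positive controls, was fitted with a log-logistic curve or, where the sigmoid fit failed, a smoothing spline. Area under the curve was then computed by the trapezoid rule.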

SUDIPGXIX [1] = diffuse intrinsic pontine glioma line; assay: as above
In short: as §1

SUDIPGVI [2] = diffuse intrinsic pontine glioma line; assay: as above
In short: as §1

SUDIPGIV [3] = diffuse intrinsic pontine glioma line; assay: as above
In short: as §1

HGGX42 [4] = H3.3 G34R paediatric high-grade glioma line; assay: as above
In short: as §1

HABS [5] = astrocyte control; assay: as above
In short: as §1

HGGX39 [6] = paediatric high-grade glioma line; assay: as above
In short: as §1

DIPGX7 [7] = H3.3 K27M diffuse intrinsic pontine glioma line; assay: as above
In short: as §1

HGGX2 [8] = paediatric high-grade glioma line; assay: as above
In short: as §1

SUDIPGXIII [9] = diffuse intrinsic pontine glioma line; assay: as above
In short: as §1

SUDIPGXVII [10] = diffuse intrinsic pontine glioma line; assay: as above
In short: as §1

SUDIPGXXI [11] = diffuse intrinsic pontine glioma line; assay: as above
In short: as §1

iAstro [12] = astrocyte control; assay: as above
In short: as §1

HGGX6 [13] = H3.3 G34R paediatric high-grade glioma line; assay: as above
In short: as §1

DIPGX9 [14] = diffuse intrinsic pontine glioma line; assay: as above
In short: as §1

DIPGX29 [15] = H3.3 K27M diffuse intrinsic pontine glioma line; assay: as above
In short: as §1

SUDIPGXIX [16] = assay: EC50 (inflection of fitted growth-inhibition curve) (log10 M)
In short: (§2)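 Viability readout was CellTiter-Glo luminescence, log2-transformed, normalised per plate to % activity between negative (solvent) and positive control wells, then pooled. This followed a 7-day exposure (3 days for iAstro) at 37 °C, 5% CO2 to a 10-point threefold dilution series (mean top concentration 35 μM), pin-tool delivered in triplicate to patient-derived pHGG/DIPG cell lines and astrocyte controls on 1% Geltrex-coated 384-well plates. Three- and four-parameter log-logistic fits were compared, and the one with the lowest AICc supplied EC50 and maximal response (yFin).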

SUDIPGVI [17] = assay: as above
In short: as §2

SUDIPGIV [18] = assay: as above
In short: as §2

HGGX42 [19] = assay: as above
In short: as §2

HABS [20] = assay: as above
In short: as §2

HGGX39 [21] = assay: as above
In short: as §2

DIPGX7 [22] = assay: as above
In short: as §2

HGGX2 [23] = assay: as above
In short: as §2

SUDIPGXIII [24] = assay: as above
In short: as §2

SUDIPGXVII [25] = assay: as above
In short: as §2

SUDIPGXXI [26] = assay: as above
In short: as §2

iAstro [27] = assay: as above
In short: as §2

HGGX6 [28] = assay: as above
In short: as §2

DIPGX9 [29] = assay: as above
In short: as §2

DIPGX29 [30] = assay: as above
In short: as §2

| SMILES | area under dose-response curve (DIPGX37) | area under dose-response curve (SUDIPGXIX [1]) | area under dose-response curve (SUDIPGVI [2]) | area under dose-response curve (SUDIPGIV [3]) | area under dose-response curve (HGGX42 [4]) | area under dose-response curve (HABS [5]) | area under dose-response curve (HGGX39 [6]) | area under dose-response curve (DIPGX7 [7]) | area under dose-response curve (HGGX2 [8]) | area under dose-response curve (SUDIPGXIII [9]) | area under dose-response curve (SUDIPGXVII [10]) | area under dose-response curve (SUDIPGXXI [11]) | area under dose-response curve (iAstro [12]) | area under dose-response curve (HGGX6 [13]) | area under dose-response curve (DIPGX9 [14]) | area under dose-response curve (DIPGX29 [15]) | EC50 (log10 M) (SUDIPGXIX [16]) | EC50 (log10 M) (SUDIPGVI [17]) | EC50 (log10 M) (SUDIPGIV [18]) | EC50 (log10 M) (HGGX42 [19]) | EC50 (log10 M) (HABS [20]) | EC50 (log10 M) (HGGX39 [21]) | EC50 (log10 M) (DIPGX7 [22]) | EC50 (log10 M) (HGGX2 [23]) | EC50 (log10 M) (SUDIPGXIII [24]) | EC50 (log10 M) (SUDIPGXVII [25]) | EC50 (log10 M) (SUDIPGXXI [26]) | EC50 (log10 M) (iAstro [27]) | EC50 (log10 M) (HGGX6 [28]) | EC50 (log10 M) (DIPGX9 [29]) | EC50 (log10 M) (DIPGX29 [30]) |
| --- | --- | --- | --- | --- | --- | --- | --- | --- | --- | --- | --- | --- | --- | --- | --- | --- | --- | --- | --- | --- | --- | --- | --- | --- | --- | --- | --- | --- | --- | --- | --- |
| Nc1ccccc1NC(=O)c1ccc(CNc2nccc(-c3cccnc3)n2)cc1 [MOCETINOSTAT] | 146 | 147 | 184 | 175 | 115 | 135 | 133 | 147 | 165 | 117 | 155 | 319 | 70.7 | 129 | 232 | 144 | -5.46 | -5.98 | -5.43 | -5.52 | -5.43 | -5.37 | -5.42 | -5.76 | -5.46 | -5.48 | -6.53 | -5.85 | -5.51 | -6.26 | -5.81 |
| O=C(Nc1ccc([N+](=O)[O-])cc1Cl)c1cc(Cl)ccc1O [NICOLSAMIDE] | 142 | 142 | 109 | 146 | 129 | 116 | 115 | 153 | 119 | 167 | 141 | 232 | 49.6 | 85.2 | 150 | 123 | -5.31 | -5.47 | -5.58 | -5.17 | -5.14 | -5.17 | -5.77 | -5.27 | -5.59 | -5.39 | -6.1 | -5.43 | -5.18 | -5.44 | -5.58 |
| CCNC(=O)c1noc(-c2cc(C(C)C)c(O)cc2O)c1-c1ccc(CN2CCOCC2)cc1 [NVP-AUY922] | 285 | 274 | 118 | 183 | 147 | 285 | 275 | 94.5 | 180 | 213 | 218 | 318 | 118 | 99.4 | 294 | 204 | -7.59 | -7.36 | -7.28 | -7.81 | -7.28 | -7.42 | -5.82 | -7.61 | -7.11 | -7.41 | -6.65 | -6.08 | -7.36 | -7.48 | -6.44 |
| CCCS(=O)(=O)c1nc(NC2CC2)cc(-c2ccc3c(ccn3C3CC(C)(C)NC(C)(C)C3)c2)n1 [NVS-1] | 159 | 174 | 158 | 138 | 185 | 124 | 130 | 166 | 169 | 163 | 154 | 140 | 143 | 145 | 152 | 172 | -5.92 | -5.79 | -5.52 | -5.95 | -5.42 | -5.57 | -5.64 | -5.95 | -5.49 | -5.75 | -5.34 | -5.72 | -5.83 | -5.62 | -6.09 |
| COC1=CC(c2cc3ccccc3[nH]2)=N/C1=C\c1[nH]c(C)cc1C [OBATOCLAX] | 167 | 216 | 210 | 177 | 196 | 138 | 165 | 219 | 217 | 128 | 128 | 280 | 141 | 136 | 177 | 174 | -5.51 | -5.71 | -5 | -5.63 | -5.01 | -5.02 | -5.53 | -5.97 | -4.99 | -5 | -5.64 | -5.45 | -5.1 | -5.05 | -5.01 |
| C[C@@H]1O[C@@H](O[C@H]2C[C@@H](O)[C@]3(CO)[C@H]4[C@H](O)C[C@]5(C)[C@@H](C6=CC(=O)OC6)CC[C@]5(O)[C@@H]4CC[C@]3(O)C2)[C@H](O)[C@H](O)[C@H]1O [OUABAIN] | 126 | 202 | 123 | 284 | 127 | 133 | 218 | 279 | 173 | 107 | 186 | 251 | 135 | 173 | 168 | 175 | -6.41 | -6.13 | -6.75 | -6.47 | -5.89 | -6.9 | -6.78 | -6.55 | -6.47 | -6.53 | -6.79 | -6.91 | -6.64 | -6.37 | -7.26 |
| Cc1[nH]c2ccccc2c1CCNCc1ccc(/C=C/C(=O)NO)cc1 [PANOBINOSTAT] | 220 | 293 | 249 | 252 | 282 | 272 | 212 | 243 | 253 | 195 | 244 | 355 | 134 | 216 | 287 | 228 | -6.75 | -6.87 | -6.92 | -6.95 | -6.59 | -6.81 | -6.73 | -6.89 | -6.04 | -6.69 | -7.22 | -6.78 | -6.93 | -7.16 | -6.97 |
| OC1(c2ccc(Cl)c(C(F)(F)F)c2)CCN(CCCC(c2ccc(F)cc2)c2ccc(F)cc2)CC1 [PENFLURIDOL] | 126 | 149 | 126 | 152 | 160 | 78.4 | 113 | 163 | 175 | 110 | 126 | 201 | 136 | 104 | 147 | 135 | -5.53 | -5.28 | -5.56 | -5.63 | -4.88 | -5.24 | -5.6 | -5.63 | -5.21 | -5.21 | -5.9 | -5.63 | -5.23 | -5.4 | -5.43 |
| Cc1ccc(C(=O)Nc2ccc(CN3CCN(C)CC3)c(C(F)(F)F)c2)cc1C#Cc1cnc2cccnn12 [PONATINIB] | 141 | 132 | 119 | 102 | 164 | 194 | 148 | 155 | 163 | 132 | 125 | 345 | 128 | 155 | 252 | 134 | -5.29 | -4.86 | -4.81 | -5.22 | -5.89 | -5.47 | -5.61 | -5.61 | -4.88 | -4.84 | -7.54 | -5.12 | -5.11 | -6.72 | -5.28 |
| CCOc1cc(C(C)(C)C)ccc1C1=N[C@@](C)(c2ccc(Cl)cc2)[C@@](C)(c2ccc(Cl)cc2)N1C(=O)N1CCN(CCCS(C)(=O)=O)CC1 [RG7112] | 169 | 204 | 30.5 | 47.8 | 76 | 176 | 82.1 | 73.2 | 77.8 | 77.5 | 91.7 | 288 | 69.8 | 61.6 | 204 | 85.4 | -5.56 | -4.87 | -4.86 | -4.64 | -5.4 | -4.85 | -4.82 | -4.78 | -4.75 | -4.8 | -6.49 | -4.85 | -4.71 | -5.7 | -4.8 |
| O=C(Nc1ccccc1-c1cn2c(CN3CCNCC3)csc2n1)c1cnc2ccccc2n1 [SRT1720] | 113 | 139 | 154 | 146 | 152 | 91.1 | 103 | 143 | 158 | 122 | 96.6 | 178 | 131 | 102 | 146 | 110 | -5.34 | -5.36 | -5.41 | -5.49 | -4.93 | -5.08 | -5.4 | -5.41 | -4.96 | -4.97 | -5.7 | -5.43 | -5.14 | -5.43 | -5.16 |
